Results taken from patent CN105311047A, “一种替米考星药物包合物及其制备和应用” (Luoyang Huizhong Animal Medicine Co Ltd, priority 2014, dated 2016).

Assay: In vitro sustained-release test (dialysis bag, phosphate buffer, UV 287 nm)
Format: physicochemical
Conditions: after 24 h (24h以后); phosphate buffer pH 6.86, 37±0.5 ℃, 100 r/min

- release rate: > 95%
SMILES: CC[C@H]1OC(=O)C[C@@H](O)[C@H](C)[C@@H](O[C@@H]2O[C@H](C)[C@@H](O)[C@H](N(C)C)[C@H]2O)[C@@H](CCN2C[C@H](C)C[C@H](C)C2)C[C@@H](C)C(=O)/C=C/C(C)=C/[C@@H]1CO[C@@H]1O[C@H](C)[C@@H](O)[C@@H](OC)[C@H]1OC [替米考星原粉, 替米考星]
